Assay results from ChEMBL document CHEMBL5346954, “Rational Design of RNA Demethylase FTO Inhibitors with Enhanced Antileukemia Drug-Like Properties” (J Med Chem, 2023).
Converted amounts (≈) assume the structure as drawn. The source made the active and inactive calls. No cut-off for these calls is given here.

Key:
[1] = tested on: MOLM-13; assay: Antiproliferative activity against human MOLM-13 cells incubated for 72 hrs by CCK8 assay; type: functional, cell-based; details: MOLM-13, 72 h
[2] = tested on: NB-4; assay: Antiproliferative activity against human NB4 cells incubated for 72 hrs by CCK8 assay; type: functional, cell-based; details: NB-4, 72 h
[3] = target: T1, Alpha-ketoglutarate-dependent dioxygenase FTO (Homo sapiens, UniProt Q9C0B1); assay: Inhibition of FTO (unknown origin)
Target sequence in this assay (Q9C0B1 whole entry): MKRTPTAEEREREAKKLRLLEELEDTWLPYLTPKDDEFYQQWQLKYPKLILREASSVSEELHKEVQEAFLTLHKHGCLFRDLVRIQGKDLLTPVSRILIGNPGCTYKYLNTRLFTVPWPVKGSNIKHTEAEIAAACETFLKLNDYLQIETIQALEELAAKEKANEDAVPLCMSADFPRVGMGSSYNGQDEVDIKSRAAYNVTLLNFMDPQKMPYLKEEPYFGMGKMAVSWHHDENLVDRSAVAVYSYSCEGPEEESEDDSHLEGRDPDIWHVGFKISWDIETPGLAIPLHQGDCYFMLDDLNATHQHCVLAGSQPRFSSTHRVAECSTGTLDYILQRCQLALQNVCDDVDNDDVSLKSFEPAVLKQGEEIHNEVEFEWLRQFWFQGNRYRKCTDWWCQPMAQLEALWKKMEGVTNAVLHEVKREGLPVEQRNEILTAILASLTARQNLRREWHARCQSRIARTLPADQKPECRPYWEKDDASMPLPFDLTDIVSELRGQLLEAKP

[4] = Solubility of the compound in PBS at pH 7.4; type: physicochemical
[5] = Permeability of the compound by PAMPA; type: ADME; details: read-out: permeability
[6] = Metabolic stability in human liver microsomes assessed as half life; type: ADME, Microsome
[7] = Metabolic stability in mouse liver microsomes assessed as half life; type: ADME, Microsome
[8] = Metabolic stability in human liver microsomes assessed as intrinsic clearance per mg of protein; type: ADME, Microsome; details: read-out: CLH
[9] = Metabolic stability in mouse liver microsomes assessed as intrinsic clearance per mg of protein; type: ADME, Microsome; details: read-out: CLH
[10] = Tmax in ICR mouse at 1 mg/kg, iv measured upto 24 hrs by LC-MS/MS analysis; type: ADME, organism-based; details: in vivo
[11] = Tmax in ICR mouse at 10 mg/kg, po measured upto 24 hrs by LC-MS/MS analysis; type: ADME, organism-based; details: in vivo
[12] = Cmax in ICR mouse at 1 mg/kg, iv measured upto 24 hrs by LC-MS/MS analysis; type: ADME, organism-based; design: time < 24 hrs, dose 1 mg/kg, route iv; details: in vivo
[13] = Cmax in ICR mouse at 10 mg/kg, po measured upto 24 hrs by LC-MS/MS analysis; type: ADME, organism-based; design: dose 10 mg/kg, time < 24 hrs, route po; details: in vivo
[14] = AUC(0 to t) in ICR mouse at 1 mg/kg, iv measured upto 24 hrs by LC-MS/MS analysis; type: ADME, organism-based; design: time < 24 hrs, dose 1 mg/kg, route iv; details: in vivo
[15] = AUC(0 to t) in ICR mouse at 10 mg/kg, po measured upto 24 hrs by LC-MS/MS analysis; type: ADME, organism-based; design: dose 10 mg/kg, time < 24 hrs, route po; details: in vivo
[16] = AUC(0 to infinity) in ICR mouse at 1 mg/kg, iv measured upto 24 hrs by LC-MS/MS analysis; type: ADME, organism-based; design: dose 1 mg/kg, time < 24 hrs, route iv; details: in vivo
[17] = AUC(0 to infinity) in ICR mouse at 10 mg/kg, po measured upto 24 hrs by LC-MS/MS analysis; type: ADME, organism-based; design: time < 24 hrs, dose 10 mg/kg, route po; details: in vivo
[18] = Oral bioavailability in ICR mouse at 10 mg/kg measured upto 24 hrs by LC-MS/MS analysis; type: ADME, organism-based; details: in vivo
[19] = target: T2, Alpha-ketoglutarate-dependent dioxygenase alkB homolog 3 (Homo sapiens) (UniProt Q96Q83); assay: Inhibition of ALKBH3 (unknown origin)
T2 sequence (whole entry): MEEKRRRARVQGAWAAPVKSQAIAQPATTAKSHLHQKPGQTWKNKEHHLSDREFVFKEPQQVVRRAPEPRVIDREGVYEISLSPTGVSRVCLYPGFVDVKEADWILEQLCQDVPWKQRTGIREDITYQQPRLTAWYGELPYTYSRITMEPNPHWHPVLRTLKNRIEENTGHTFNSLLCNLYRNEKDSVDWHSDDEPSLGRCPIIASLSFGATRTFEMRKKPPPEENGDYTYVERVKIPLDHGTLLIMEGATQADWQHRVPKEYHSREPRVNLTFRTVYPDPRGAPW

[20] = target: RNA demethylase ALKBH5 (Homo sapiens) (UniProt Q6P6C2); assay: Inhibition of ALKBH5 (unknown origin)
Chain of RNA demethylase ALKBH5 (Homo sapiens) (Q6P6C2 2-394 limits assumed): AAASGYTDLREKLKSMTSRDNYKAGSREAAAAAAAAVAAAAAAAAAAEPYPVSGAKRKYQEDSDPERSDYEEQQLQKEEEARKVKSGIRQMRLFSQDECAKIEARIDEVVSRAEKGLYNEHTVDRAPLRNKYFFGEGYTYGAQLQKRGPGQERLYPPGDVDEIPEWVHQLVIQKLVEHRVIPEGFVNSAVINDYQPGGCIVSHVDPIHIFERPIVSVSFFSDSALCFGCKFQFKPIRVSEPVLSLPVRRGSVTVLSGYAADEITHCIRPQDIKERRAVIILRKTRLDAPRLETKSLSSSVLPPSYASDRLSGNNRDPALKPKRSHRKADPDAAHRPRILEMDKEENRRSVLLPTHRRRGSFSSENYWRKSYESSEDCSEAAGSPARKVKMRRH

[21] = tested on: HEL; assay: Antiproliferative activity against HEL cells incubated for 72 hrs by CCK8 assay; type: functional, cell-based; details: Homo sapiens
[22] = tested on: KG-1; assay: Antiproliferative activity against human KG-1 cells incubated for 72 hrs by CCK8 assay; type: functional, cell-based; details: KG-1, 72 h
[23] = tested on: MV4-11; assay: Antiproliferative activity against human MV4-11 cells incubated for 72 hrs by CCK8 assay; type: functional, cell-based; details: MV4-11, 72 h
[24] = tested on: THP-1; assay: Antiproliferative activity against human THP-1 cells incubated for 72 hrs by CCK8 assay; type: functional, cell-based; details: THP-1, 72 h
[25] = target: T1, Alpha-ketoglutarate-dependent dioxygenase FTO; assay: Inhibition of FTO (unknown origin) using (5'-AUUGUCA(M6A)CAGCAGC-3') as substrate incubated for 2 hrs by dot-blot assay
Target sequence in this assay (Q9C0B1 whole entry): as the sequence (Q9C0B1 whole entry) above

[26] = target: T1, Alpha-ketoglutarate-dependent dioxygenase FTO; assay: Inhibition of FTO (unknown origin) by PAGE based assay
Target sequence in this assay (Q9C0B1 whole entry): as above

[27] = tested on: NB-4; assay: Inhibition of colony formation in human NB4 cells incubated for 14 days by nitroblue tetrazolium chloride staining based assay; type: functional, cell-based; details: time 14.0 day
[28] = tested on: MOLM-13; assay: Inhibition of colony formation in human MOLM-13 cells incubated for 14 days by nitroblue tetrazolium chloride staining based assay; type: functional, cell-based; details: time 14.0 day
[29] = target: T1, Alpha-ketoglutarate-dependent dioxygenase FTO; assay: Inhibition of FTO in human NB4 cells assessed as increase in abundance of m6A on RNA at 5 to 20 uM incubated for 48 hrs by dot-blot assay; type: cell-based; details: dose 5-20 µM
Target sequence in this assay (Q9C0B1 whole entry, looked up): as the sequence (Q9C0B1 whole entry) above

[30] = target: T1, Alpha-ketoglutarate-dependent dioxygenase FTO; assay: Inhibition of FTO in human MOLM-13 cells assessed as increase in abundance of m6A on RNA at 5 to 20 uM incubated for 48 hrs by dot-blot assay; type: cell-based; details: dose 5-20 µM
Target sequence in this assay (Q9C0B1 whole entry, looked up): as the sequence (Q9C0B1 whole entry) above

[31] = target: T1, Alpha-ketoglutarate-dependent dioxygenase FTO; assay: Inhibition of FTO in human MOLM-13 cells assessed as upregulation RARA RNA level at 5 to 10 uM incubated for 72 hrs by RT-qPCR analysis; type: cell-based; details: dose 5-10 µM
Target sequence in this assay (Q9C0B1 whole entry, looked up): as the sequence (Q9C0B1 whole entry) above

[32] = target: T1, Alpha-ketoglutarate-dependent dioxygenase FTO; assay: Inhibition of FTO in human MOLM-13 cells assessed as downregulation Myc RNA level at 5 to 10 uM incubated for 72 hrs by RT-qPCR analysis; type: cell-based; details: dose 5-10 µM
Target sequence in this assay (Q9C0B1 whole entry, looked up): as the sequence (Q9C0B1 whole entry) above

[33] = target: T1, Alpha-ketoglutarate-dependent dioxygenase FTO; assay: Inhibition of FTO in human MOLM-13 cells assessed as upregulation RARA protein level at 5 to 10 uM incubated for 48 hrs by Western blot analysis; type: cell-based; details: dose 5-10 µM
Target sequence in this assay (Q9C0B1 whole entry, looked up): as the sequence (Q9C0B1 whole entry) above

[34] = target: T1, Alpha-ketoglutarate-dependent dioxygenase FTO; assay: Inhibition of FTO in human MOLM-13 cells assessed as downregulation Myc protein level at 5 to 10 uM incubated for 48 hrs by Western blot analysis; type: cell-based; details: dose 5-10 µM
Target sequence in this assay (Q9C0B1 whole entry, looked up): as the sequence (Q9C0B1 whole entry) above

[35] = tested on: MV4-11; assay: Antitumor activity against human MV4-11 cells xenografted in BALB/c mouse assessed as reduction in tumor volume at 40 mg/kg, ip administered daily for 26 days; type: functional, organism-based; details: time 26.0 day
[36] = tested on: MV4-11; assay: Antitumor activity against human MV4-11 cells xenografted in BALB/c mouse assessed as reduction in tumor weight at 40 mg/kg, ip administered daily for 26 days; type: functional, organism-based; details: time 26.0 day
[37] = Toxicity in BALB/c mouse xenografted with human MV4-11 cells assessed as body weight loss at 40 mg/kg, ip administered daily for 26 days; type: organism-based; details: in vivo, 624 h, time 26 day
[38] = tested on: Mus musculus; assay: In vivo inhibition of FTO in human MV4-11 cells xenografted in BALB/c mouse assessed as increase in m6A abundance at 40 mg/kg, ip administered daily for 26 days; type: functional, organism-based; details: time 26.0 day

CCc1cc(-c2c(C)noc2C)cc(CC)c1Nc1cccc(CN2CCCOCC2)c1C(=O)O
IC50 [1]: 1.5 µM | IC50 [2]: 1 µM

CCc1cc(-c2ccncc2)cc(CC)c1Nc1cccc(Cn2ccnc2)c1C(=O)O
IC50 [3]: 6.5 µM

CCc1cc(-c2ccncc2)cc(CC)c1Nc1cccc(CN(CC)CC)c1C(=O)O
IC50 [3]: 7.6 µM

CCc1cc(-c2ccncc2)cc(CC)c1Nc1cccc(CN2CCCOCC2)c1C(=O)O
IC50 [1]: 1.5 µM | IC50 [2]: 1 µM

CCc1cc(-c2ccncc2)cc(CC)c1Nc1cccc(CN(CCOC)CCOC)c1C(=O)O
IC50 [3]: 6.3 µM

Cc1noc(C)c1-c1cc(Cl)c(Nc2cccc(CN3CCCOCC3)c2C(=O)O)c(C(F)(F)F)c1
IC50 [3]: 6.1 µM | IC50 [1]: 2.2 µM | IC50 [2]: 2.3 µM | solubility [4]: 42.6 µM (≈ 22.3 µg/mL) | Papp [5]: 14.1 ×10⁻⁶ cm/s

Cc1noc(C)c1-c1cc(F)c(Nc2ccccc2C(=O)O)c(Cl)c1
solubility [4]: 275 µM (≈ 99.1 µg/mL) | Papp [5]: 17.4 ×10⁻⁶ cm/s | half-life [6]: > 3.08 h | half-life [7]: 1.76 h | microsomal CLint [8]: < 7.5 µL/min/mg | microsomal CLint [9]: < 7.5 µL/min/mg | Tmax [10]: 1.5 h | Tmax [11]: 1 h | Cmax [12]: 5400 ng/mL | Cmax [13]: 8500 ng/mL | AUC(0-t) at 24 h [14]: 36200 ng·h/mL | AUC(0-t) at 24 h [15]: 63600 ng·h/mL | AUC(0-inf) [16]: 39200 ng·h/mL | AUC(0-inf) [17]: 68800 ng·h/mL | bioavailability [18]: 17.5%

CCc1cc(-c2ccncc2)cc(CC)c1Nc1cccc(CN(CC)CCN2CCOCC2)c1C(=O)O
IC50 [3]: 6.8 µM

O=C(O)c1c(CN2CCCOCC2)cccc1Nc1c(Cl)cc(-c2nnn[nH]2)cc1Cl
solubility [4]: 305 µM (≈ 141 µg/mL) | Papp [5]: < 0.001 ×10⁻⁶ cm/s

Cc1noc(C)c1-c1cc(Cl)c(Nc2cccc(CN3CCCOCC3)c2C(=O)O)c(C2CC2)c1
IC50 [3]: 2.3 µM | inhibition [19]: inactive | inhibition [20]: inactive | IC50 [21]: 10.3 µM | IC50 [22]: 4.1 µM | IC50 [1]: 1.7 µM | IC50 [23]: 3.4 µM | IC50 [2]: 1.5 µM | IC50 [24]: 6 µM | IC50 [25]: 0.12 µM | IC50 [26]: 2.3 µM | inhibition [27]: Dose-Dependent Effect | inhibition [28]: Dose-Dependent Effect | inhibition [29]: Active | inhibition [30]: Active | inhibition [31]: Active | inhibition [32]: Active | inhibition [33]: Active | inhibition [34]: Active | solubility [4]: 7.6 µM (≈ 3.77 µg/mL) | Papp [5]: 21.4 ×10⁻⁶ cm/s | half-life [6]: 1.53 h | half-life [7]: > 3.08 h | microsomal CLint [8]: 15.1 µL/min/mg | microsomal CLint [9]: 13.3 µL/min/mg | Tmax [10]: 2.5 h | Tmax [11]: 0.5 h | Cmax [12]: 3700 ng/mL | Cmax [13]: 7200 ng/mL | AUC(0-t) at 24 h [14]: 46200 ng·h/mL | AUC(0-t) at 24 h [15]: 80500 ng·h/mL | AUC(0-inf) [16]: 55600 ng·h/mL | AUC(0-inf) [17]: 103000 ng·h/mL | bioavailability [18]: 18.5% | Activity [35]: Active | Activity [36]: Active | Activity [37]: Non-Toxic | inhibition [38]: Active

Cc1noc(C)c1-c1cc(F)c(Nc2cccc(CN3CCCOCC3)c2C(=O)O)c(F)c1F
IC50 [1]: 1.5 µM | IC50 [2]: 1 µM

Cc1n[nH]c(C)c1-c1cc(Cl)c(Nc2cccc(CN3CCCOCC3)c2C(=O)O)c(Cl)c1
IC50 [3]: 4 µM | IC50 [1]: 1.5 µM | IC50 [2]: 1 µM | solubility [4]: 18.1 µM (≈ 8.86 µg/mL) | Papp [5]: 4.5 ×10⁻⁶ cm/s

O=C(O)c1c(CN2CCCOCC2)cccc1Nc1c(C2CC2)cc(-c2ccncc2)cc1C1CC1
IC50 [3]: 2.6 µM

CCc1cc(-c2ccncc2)cc(CC)c1Nc1cccc(CN2CC(N(C)C)C2)c1C(=O)O
IC50 [1]: 1.5 µM | IC50 [2]: 1 µM

Cc1noc(C)c1-c1c(F)c(F)c(Nc2cccc(CN3CCCOCC3)c2C(=O)O)c(F)c1F
IC50 [1]: 1.5 µM | IC50 [2]: 1 µM
